Publication PMC9516332 (Frontiers in Oncology, 2022)

Columns and labels:
Assay in all cases: Kinase panel profiling at 1 µmol/L (MSA or IMAP), percentage inhibition
Format in all cases: biochemical
[1] = target: panel of 255 wild-type kinases (Homo sapiens, UniProt O94804); conditions: kinase LOK; 1 µmol/L single concentration; read-out: %-inhibition at 1 µmol/L, LOK
[2] = target: panel of 255 wild-type kinases (Homo sapiens, UniProt Q86V86); conditions: kinase PIM3; 1 µmol/L single concentration; read-out: %-inhibition at 1 µmol/L, PIM3
[3] = target: panel of 255 wild-type kinases (Homo sapiens, UniProt Q15119); conditions: kinase PDHK2; 1 µmol/L single concentration; read-out: %-inhibition at 1 µmol/L, PDHK2
[4] = target: panel of 255 wild-type kinases (Homo sapiens, UniProt Q13153); conditions: PAK1; 1 µmol/L single concentration; read-out: %-inhibition, PAK1
[5] = target: panel of 255 wild-type kinases (Homo sapiens, UniProt Q16654); conditions: kinase PDHK4; 1 µmol/L single concentration; read-out: %-inhibition at 1 µmol/L, PDHK4
[6] = target: T1, panel of 255 wild-type kinases (Homo sapiens, UniProt O94806); conditions: kinase PKD3; 1 µmol/L single concentration; read-out: %-inhibition at 1 µmol/L, PKD3
T1 sequence (O94806 1-890): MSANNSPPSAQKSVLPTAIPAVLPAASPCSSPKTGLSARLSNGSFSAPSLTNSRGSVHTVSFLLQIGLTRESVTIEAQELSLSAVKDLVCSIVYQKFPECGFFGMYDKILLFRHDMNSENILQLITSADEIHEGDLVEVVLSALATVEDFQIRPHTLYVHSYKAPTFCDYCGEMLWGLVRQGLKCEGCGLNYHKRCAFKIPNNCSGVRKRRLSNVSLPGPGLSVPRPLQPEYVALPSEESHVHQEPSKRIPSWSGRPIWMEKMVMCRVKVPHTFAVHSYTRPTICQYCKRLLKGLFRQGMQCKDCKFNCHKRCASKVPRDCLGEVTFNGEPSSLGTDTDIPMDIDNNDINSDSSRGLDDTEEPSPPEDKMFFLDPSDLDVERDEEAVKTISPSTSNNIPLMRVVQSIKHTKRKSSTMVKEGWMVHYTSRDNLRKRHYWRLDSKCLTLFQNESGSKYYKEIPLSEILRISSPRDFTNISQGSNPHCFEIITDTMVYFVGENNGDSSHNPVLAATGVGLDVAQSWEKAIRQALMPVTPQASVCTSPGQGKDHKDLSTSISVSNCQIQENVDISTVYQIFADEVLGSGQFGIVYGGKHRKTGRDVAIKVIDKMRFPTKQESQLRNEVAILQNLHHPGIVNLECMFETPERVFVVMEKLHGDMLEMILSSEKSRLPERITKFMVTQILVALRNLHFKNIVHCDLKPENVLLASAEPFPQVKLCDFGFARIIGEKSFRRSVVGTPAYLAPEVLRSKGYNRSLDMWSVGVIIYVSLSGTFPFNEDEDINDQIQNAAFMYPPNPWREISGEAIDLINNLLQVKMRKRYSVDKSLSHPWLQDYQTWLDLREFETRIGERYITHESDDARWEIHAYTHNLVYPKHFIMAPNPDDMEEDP

[7] = target: panel of 255 wild-type kinases (Homo sapiens, UniProt Q9H1R3); conditions: kinase skMLCK; 1 µmol/L single concentration; read-out: %-inhibition at 1 µmol/L, skMLCK
[8] = target: panel of 255 wild-type kinases (Homo sapiens, UniProt Q9P0L2); conditions: MARK1; 1 µmol/L single concentration; read-out: %-inhibition, MARK1
[9] = target: T2, panel of 255 wild-type kinases (Homo sapiens, UniProt Q13470); conditions: kinase TNK1; 1 µmol/L single concentration; read-out: %-inhibition at 1 µmol/L, TNK1
T2 sequence (Q13470 1-666): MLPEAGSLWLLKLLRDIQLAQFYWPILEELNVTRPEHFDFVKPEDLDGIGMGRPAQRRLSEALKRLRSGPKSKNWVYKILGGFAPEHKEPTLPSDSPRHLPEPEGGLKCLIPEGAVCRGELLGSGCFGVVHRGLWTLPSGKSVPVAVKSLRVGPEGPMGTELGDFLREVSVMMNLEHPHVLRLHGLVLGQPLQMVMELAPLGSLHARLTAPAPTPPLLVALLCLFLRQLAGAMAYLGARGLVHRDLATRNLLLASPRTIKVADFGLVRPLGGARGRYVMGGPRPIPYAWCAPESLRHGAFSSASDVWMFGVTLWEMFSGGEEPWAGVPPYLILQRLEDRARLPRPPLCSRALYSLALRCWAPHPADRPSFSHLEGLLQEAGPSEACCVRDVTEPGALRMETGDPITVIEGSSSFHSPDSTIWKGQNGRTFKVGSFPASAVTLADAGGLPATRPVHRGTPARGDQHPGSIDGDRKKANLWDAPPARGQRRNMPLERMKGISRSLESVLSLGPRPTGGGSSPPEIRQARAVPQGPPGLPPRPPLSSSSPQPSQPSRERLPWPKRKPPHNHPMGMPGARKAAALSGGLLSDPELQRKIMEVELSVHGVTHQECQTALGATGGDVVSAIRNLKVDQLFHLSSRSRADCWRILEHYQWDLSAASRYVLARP

[10] = target: panel of 255 wild-type kinases (Homo sapiens, UniProt P17948); conditions: kinase FLT1; 1 µmol/L single concentration; read-out: %-inhibition at 1 µmol/L, FLT1
[11] = target: panel of 255 wild-type kinases (Homo sapiens, UniProt P14616); conditions: kinase IRR; 1 µmol/L single concentration; read-out: %-inhibition at 1 µmol/L, IRR
[12] = target: panel of 255 wild-type kinases (Homo sapiens, UniProt P04629); conditions: kinase TRKA; 1 µmol/L single concentration; read-out: %-inhibition at 1 µmol/L, TRKA

SMILES | inhibition at 1 µM [1] [%] | inhibition at 1 µM [2] [%] | inhibition at 1 µM [3] [%] | inhibition at 1 µM [4] [%] | inhibition at 1 µM [5] [%] | inhibition at 1 µM [6] [%] | inhibition at 1 µM [7] [%] | inhibition at 1 µM [8] [%] | inhibition at 1 µM [9] [%] | inhibition at 1 µM [10] [%] | inhibition at 1 µM [11] [%] | inhibition at 1 µM [12] [%]
CCc1nc(C(N)=O)c(Nc2ccc(N3CCC(N4CCN(C)CC4)CC3)c(OC)c2)nc1NC1CCOCC1 [gilteritinib] | 100 | 23 | 5 | 4 | 3 | 53 | 5 | 27 | 97 | 95 | 100 | 100
CCn1c(=O)c(-c2cc(NC(=O)Nc3ccccc3)c(F)cc2Br)cc2cnc(NC)cc21 [ripretinib] | 53 | 1.11 | 0.884 | 0.719 | 4 | 15 | 69 | -0.571 | 17 | 91 | 4.5 | 42
Cc1nc(NC(=O)N2CCC[C@H]2C(N)=O)sc1-c1ccnc(C(C)(C)C(F)(F)F)c1 [alpelisib] | -7 | -13 | 0.0902 | -3.29 | 0.0757 | -2.46 | -3.8 | -0.158 | -4.23 | 3 | 7 | 6.61
CCN1C(=O)N(c2c(F)c(OC)cc(OC)c2F)Cc2cnc3[nH]c(CN4CCOCC4)cc3c21 [pemigatinib] | 4.7 | -8 | 3.53 | -3.62 | -4 | 14 | 30 | 57 | 5 | 95 | 8 | 14
C=CC(=O)N1CCC([C@@H]2CCNc3c(C(N)=O)c(-c4ccc(Oc5ccccc5)cc4)nn32)CC1 [zanubrutinib] | 5 | -8 | 5 | -2.56 | 0.136 | 13 | -2.7 | -6 | 1.66 | 2.22 | 2.69 | 9
Cn1cc(-c2cc3c(N4CCN(c5ncc([C@@](C)(N)c6ccc(F)cc6)cn5)CC4)ncnn3c2)cn1 [avapritinib] | 54 | 9 | 0.651 | 0.845 | 5.61 | 8 | 1.29 | -10 | 19 | 76 | 2.37 | 65

Now from value to molecule:

inhibition at 1 µM [1] [%] | inhibition at 1 µM [2] [%] | inhibition at 1 µM [3] [%] | inhibition at 1 µM [4] [%] | inhibition at 1 µM [5] [%] | inhibition at 1 µM [6] [%] | inhibition at 1 µM [7] [%] | inhibition at 1 µM [8] [%] | inhibition at 1 µM [9] [%] | inhibition at 1 µM [10] [%] | inhibition at 1 µM [11] [%] | inhibition at 1 µM [12] [%] | SMILES
3.42 | 5 | -1.13 | 5 | -0.429 | 0.731 | -5.4 | 0.905 | -8 | 10 | -5.48 | -5 | Cn1cnc2c(F)c(Nc3ccc(Br)cc3F)c(C(=O)NOCCO)cc21 [binimetinib]
40 | -2.65 | -0.608 | -5.31 | -2.71 | 12 | -0.264 | 22 | 30 | 98 | 3 | 33 | COc1ccc(CN2C3CC2CN(c2ccc(-c4cc(OCC(C)(C)O)cn5ncc(C#N)c45)cn2)C3)cn1 [selpercatinib]
6.43 | -1.3 | -2 | -1.11 | 7.57 | 39 | -1.5 | -7 | 4.33 | 3.22 | 3 | 20 | Cc1cc(Nc2ncnc3ccc(NC4=NC(C)(C)CO4)cc23)ccc1Oc1ccn2ncnc2c1 [tucatinib]
5 | -0.0221 | 2.47 | 7 | 0.425 | 0.359 | 0.627 | -16 | -8 | 4.22 | 2.15 | 18 | Cn1cnc2c(F)c(Nc3ccc(Br)cc3Cl)c(C(=O)NOCCO)cc21 [selumetinib]
86 | 23 | 2.44 | 0.38 | 3 | 8 | 10 | -2 | 35 | 20 | 6 | 6 | COc1cc2ncnc(Nc3ccc(F)c(Cl)c3)c2cc1NC(=O)/C=C/CN1CCCCC1 [dacomitinib]
13 | -0.165 | 1.11 | 9 | 12 | 3 | 5 | -13 | 71 | 96 | 10 | 96 | CO[C@]1(C(=O)N[C@@H](C)c2ccc(-n3cc(F)cn3)nc2)CC[C@H](c2nc(C)cc(Nc3cc(C)[nH]n3)n2)CC1 [pralsetinib]
